Assays:
Format in all cases: cell-based
[1] = test system: Calothrix parientina; test: Algal efficacy testing, modified ASTM 5589, paint film; settings: for Total conc: total biocide in paint chosen as minimum inhibitory concentration, dry film; for Total conc / % inhibition: 3 weeks
Experimental: (§1) Sample preparation: Samples of white acrylic latex paint free of biocides were prepared in 50 ml aliquots. Each biocide was post added to give the necessary active ingredient concentration in the paint. The total biocides concentrations tested were 750, 1500, 2500 and 5000 ppm. After biocides addition, each sample was hand mixed for a minimum of 30 sec, followed by a 3 min run on the paint shaker (RED DEVIL). Each of the paint samples as well as a control sample (containing no biocide) were used to prepare films on black plastic-vinyl chloride/acetate copolymer panels (LENETA, Mahwah, N.J.) using a 3 mil bird bar applicator. The panels were thoroughly dried for 5 days avoiding direct exposure to sunlight. Square discs (15 mm^2) were cut out from each panel and were used as the substrate for fungal and algal efficacy tests. This sample size allowed for an agar border when the sample disc was placed into the well of the test plate.
(§2) The appropriate media (BOLD'S 3N for Chlorophytes, BG-11 for Cyanobacteria, and PDA for fungi) were used to support microbial growth. The test plates were maintained at room temp (25° C.-26° C.), in a cycled light-dark environment, for 3 weeks for algae. Plates for fungal challenge tests were maintained at 30 C for three weeks. At the end of incubation period the samples were scored for percent area covered by visible microbial growth.
(§3) ASTM 5589 is a standard accelerated test method for determining resistance of various coatings (including paints) to algal defacement. To accommodate for high-throughput screening, this method was scaled down from petri plates to 12-well plates. A single coupon was placed with a pair of sterile forceps at the center of the agar plug (on top) with the painted surface facing upwards. Each well was inoculated with 150 μl of organism (1×10^6 cfu/ml) making sure that the whole surface (paint film as well as the agar surrounding it) was evenly covered. The plates were incubated at room temp (25° C.-26° C.) with cyclic exposure to light (OTT-Lite model # OTL4012P, 40 Watt, 26 KLumen) and dark phases, for a period of three weeks. The total area covered was evaluated at the end of each week after the second week according to percent area covered in 5% increments. While rating the plates, notations were made for zones of inhibition.
(§4) The SI is calculated based on F. C. Kull et.

[2] = test system: Chlorella sp. UTEX + Chlorella kessleri; test: as above; settings: for Total conc: total biocide in paint chosen as minimum inhibitory concentration, dry film; for Total conc / % inhibition: 3 weeks
Experimental: as §1, §2, §3, §4

[3] = test system: Gleocapsa sp.; test: as above; settings: for Total conc: total biocide in paint chosen as minimum inhibitory concentration, dry film; for Total conc / % inhibition: 3 weeks
Experimental: as §1, §2, §3, §4

[4] = test system: Oscillatoria sp.; test: as above; settings: for Total conc: total biocide in paint chosen as minimum inhibitory concentration, dry film; for Total conc / % inhibition: 3 weeks
Experimental: as §1, §2, §3, §4

[5] = test system: Nostoc commune; test: as above; settings: for Total conc: total biocide in paint chosen as minimum inhibitory concentration, dry film; for Total conc / % inhibition: 3 weeks
Experimental: as §1, §2, §3, §4

[6] = test system: Trentepohlia aurea + Trentepohlia odorata; test: as above; settings: for Total conc: total biocide in paint chosen as minimum inhibitory concentration, dry film; for Total conc / % inhibition: 3 weeks; for % inhibition: total conc 1500 ppm in paint
Experimental: as §1, §2, §3, §4

[7] = test system: Cladosporium herbarum; test: Fungal efficacy testing, modified ASTM 5590, paint film; settings: for Total conc: total biocide in paint chosen as minimum inhibitory concentration, dry film; for Total conc / % inhibition: 3 weeks
Experimental: as §1, §2
(§5) ASTM 5590 is a standard accelerated test method for determining resistance of various coatings (including paints) to fungal defacement. To accommodate for high-throughput screening, this method was scaled down from petri plates to 12-well plates. To set up the test, an agar plug was placed at the bottom of each well of the sterile 12-well plate. A single coupon was placed with a pair of sterile forceps at the center of the agar plug (on top) with the painted surface facing upwards. Each well was inoculated with 150 μl of organism (1×10^6 cfu/ml) making sure that the whole surface (paint film as well as the agar surrounding it) was evenly covered. The plates were incubated at 30° C. in presence of moisture, for a period of three weeks. The total percent area covered was evaluated and recorded at the end of each week after the 2nd week and recorded in increments of 5%.
as §4

[8] = test system: Penicillium funiculosum; test: as above; settings: for Total conc: total biocide in paint chosen as minimum inhibitory concentration, dry film; for Total conc / % inhibition: 3 weeks
Experimental: as §1, §2, §5, §4

[9] = test system: Stachybotris chartarum; test: as above; settings: for Total conc: total biocide in paint chosen as minimum inhibitory concentration, dry film
Experimental: as §1, §2, §5, §4

[10] = test system: Aspergillus niger; test: as above; settings: for Total conc: total biocide in paint chosen as minimum inhibitory concentration, dry film; for Total conc / % inhibition: 3 weeks; for % inhibition: total conc 1500 ppm in paint
Experimental: as §1, §2, §5, §4

[11] = test system: Aureobasidium pullulans; test: as above; settings: for Total conc: total biocide in paint chosen as minimum inhibitory concentration, dry film; for Total conc / % inhibition: 3 weeks
Experimental: as §1, §2, §5, §4

[12] = test system: Trichoderma viride; test: as above; settings: for Total conc: total biocide in paint chosen as minimum inhibitory concentration, dry film; for Total conc / % inhibition: 3 weeks
Experimental: as §1, §2, §5, §4

[13] = test system: Alternaria alternata; test: as above; settings: for Total conc: total biocide in paint chosen as minimum inhibitory concentration, dry film; for Total conc / % inhibition: 3 weeks
Experimental: as §1, §2, §5, §4

[14] = total conc 750 ppm in paint, Table 3
[15] = total conc 1500 ppm in paint, Table 1
[16] = total conc 2500 ppm in paint, Table 3
[17] = total conc 1500 ppm in paint, Table 3
[18] = total conc 1500 ppm in paint, Table 2
[19] = total conc 1500 ppm in paint, Table 4
[20] = total conc 750 ppm in paint, Table 4
[21] = total conc 2500 ppm in paint, Table 4

CCCCNC(=O)OCC#CI [IPBC, 3-iodo-2-propynyl-butylcarbamate]
65%: % inhibition ([9]; total conc 2500 ppm in paint, 3 weeks, Table 2)
60%: % inhibition ([10]; Table 2) | % inhibition [11, 20]
2500 ppm: Total conc ([2]; Table 1) | Total conc ([2]; Table 3) | Total conc ([3]; Table 3) | Total conc ([4]; Table 3) | Total conc ([9]; 3 weeks, Table 2) | Total conc ([13]; Table 4)
80%: % inhibition [1, 14] | % inhibition [1, 15] | % inhibition ([2]; total conc 2500 ppm in paint, Table 1) | % inhibition [2, 16] | % inhibition ([3]; total conc 750 ppm in paint, Table 1) | % inhibition [4, 15] | % inhibition [4, 16] | % inhibition [5, 15] | % inhibition [5, 17] | % inhibition ([6]; Table 1) | % inhibition ([6]; Table 3) | % inhibition [7, 19]
750 ppm: Total conc ([1]; Table 3) | Total conc ([3]; Table 1) | Total conc ([11]; Table 4)
85%: % inhibition ([10]; Table 4) | % inhibition [12, 19] | % inhibition [13, 18]
90%: % inhibition [7, 18] | % inhibition [8, 18] | % inhibition [11, 18]
70%: % inhibition [8, 19]
1500 ppm: Total conc ([1]; Table 1) | Total conc ([4]; Table 1) | Total conc ([5]; Table 1) | Total conc ([5]; Table 3) | Total conc ([6]; Table 1) | Total conc ([6]; Table 3) | Total conc ([7]; Table 2) | Total conc ([7]; Table 4) | Total conc ([8]; Table 2) | Total conc ([8]; Table 4) | Total conc ([10]; Table 2) | Total conc ([10]; Table 4) | Total conc ([11]; Table 2) | Total conc ([12]; Table 2) | Total conc ([12]; Table 4) | Total conc ([13]; Table 2)
50%: % inhibition [3, 16] | % inhibition [13, 21]
75%: % inhibition [12, 18]

CCOc1nc(F)cc2nc(S(=O)(=O)Nc3c(Cl)cccc3Cl)nn12 [Diclosulam]
60%: % inhibition [3, 17]
80%: % inhibition [1, 14] | % inhibition [4, 14] | % inhibition ([6]; Table 3) | % inhibition [7, 21] | % inhibition ([10]; Table 4) | % inhibition [12, 20]
0%: % inhibition [13, 21]
45%: % inhibition [8, 21]
2500 ppm: Total conc ([5]; Table 3) | Total conc ([7]; Table 4) | Total conc ([8]; Table 4) | Total conc ([13]; Table 4)
35%: % inhibition [11, 19]
75%: % inhibition [2, 14] | % inhibition [5, 16]
1500 ppm: Total conc ([3]; Table 3) | Total conc ([6]; Table 3) | Total conc ([10]; Table 4) | Total conc ([11]; Table 4)
750 ppm: Total conc ([1]; Table 3) | Total conc ([2]; Table 3) | Total conc ([4]; Table 3) | Total conc ([12]; Table 4)

Cc1ccn2nc(S(=O)(=O)Nc3c(F)cccc3F)nc2n1 [Flumetsulam]
70%: inhibition at 2500 ppm ([9]; 504 h) | inhibition at 2500 ppm ([12]; Trichoderma viride, 504 h)
1500 ppm: Total conc ([3]; Table 1) | Total conc ([4]; Table 1) | Total conc ([5]; Table 1) | Total conc ([6]; Table 1) | Total conc ([7]; Table 2) | Total conc ([8]; Table 2)
90%: inhibition at 2500 ppm ([1]; 504 h) | inhibition at 1500 ppm ([3]; 504 h) | inhibition at 2500 ppm ([11]; Aureobasidium pullulans, 504 h) | inhibition at 2500 ppm ([13]; Alternaria alternata, 504 h)
80%: inhibition at 2500 ppm ([2]; 504 h) | inhibition at 1500 ppm ([4]; 504 h) | inhibition at 1500 ppm ([8]; Talaromyces funiculosus, 504 h)
2500 ppm: Total conc ([1]; Table 1) | Total conc ([2]; Table 1) | Total conc ([9]; 3 weeks, Table 2) | Total conc ([10]; Table 2) | Total conc ([11]; Table 2) | Total conc ([12]; Table 2) | Total conc ([13]; Table 2)
85%: inhibition at 1500 ppm ([5]; Nostoc commune, 504 h) | inhibition at 1500 ppm ([6]; 504 h) | inhibition at 1500 ppm ([7]; Cladosporium herbarum, 504 h)
40%: inhibition at 2500 ppm ([10]; Aspergillus niger, 504 h)

From patent publication US8569315B2, “Synergistic antimicrobial composition” (priority 2009, dated 2013)
